From ChEMBL document CHEMBL5696441 (Nat Chem Biol, 2011)

Assays:
[1] = biological target: Serine/threonine-protein kinase PAK 5 (Homo sapiens) (UniProt Q9P286); experiment: Inhibition of PAK7 (unknown origin) assessed as remaining activity at 1 uM by Kinome scan method relative to control
[2] = biological target: Ribosomal protein S6 kinase alpha-3 (Homo sapiens) (UniProt P51812); experiment: Inhibition of N-terminal kinase domain RPS6KA3 (unknown origin) assessed as remaining activity at 1 uM by Kinome scan method relative to control
[3] = test system: Phosphatidylinositol 4,5-bisphosphate 3-kinase catalytic subunit alpha isoform (Homo sapiens), P42336 [M1043I]; experiment: Inhibition of PIK3CA M1043I mutant (unknown origin) assessed as remaining activity at 1 uM by Kinome scan method relative to control
[4] = biological target: T1, Testis-specific serine/threonine-protein kinase 1 (Homo sapiens) (UniProt Q9BXA7); experiment: Inhibition of TSSK1B (unknown origin) assessed as remaining activity at 1 uM by Kinome scan method relative to control
T1 sequence (whole entry): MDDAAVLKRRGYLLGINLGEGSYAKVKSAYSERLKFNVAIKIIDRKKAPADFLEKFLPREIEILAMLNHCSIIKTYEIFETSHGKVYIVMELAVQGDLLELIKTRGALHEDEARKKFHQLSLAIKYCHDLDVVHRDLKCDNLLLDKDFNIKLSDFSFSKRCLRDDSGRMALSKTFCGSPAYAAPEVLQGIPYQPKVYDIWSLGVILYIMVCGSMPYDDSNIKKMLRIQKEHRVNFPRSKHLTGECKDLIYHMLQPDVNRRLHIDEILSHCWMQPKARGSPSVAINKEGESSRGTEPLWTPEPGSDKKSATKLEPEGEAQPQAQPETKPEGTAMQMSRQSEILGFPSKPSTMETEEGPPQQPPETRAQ

[5] = biological target: LIM domain kinase 1 (Homo sapiens) (UniProt P53667); experiment: Inhibition of LIMK1 (unknown origin) assessed as remaining activity at 1 uM by Kinome scan method relative to control
[6] = biological target: Serine/threonine-protein kinase MRCK gamma (Homo sapiens) (UniProt Q6DT37); experiment: Inhibition of DMPK2 (unknown origin) assessed as remaining activity at 1 uM by Kinome scan method relative to control
[7] = biological target: Phosphorylase b kinase gamma catalytic chain, skeletal muscle/heart isoform (Homo sapiens) (UniProt Q16816); experiment: Inhibition of PHKG1 (unknown origin) assessed as remaining activity at 1 uM by Kinome scan method relative to control
[8] = biological target: Casein kinase II subunit alpha (Homo sapiens) (UniProt P68400); experiment: Inhibition of CSNK2A1 (unknown origin) assessed as remaining activity at 1 uM by Kinome scan method relative to control
[9] = biological target: Tyrosine-protein kinase Lyn (Homo sapiens) (UniProt P07948); experiment: Inhibition of LYN (unknown origin) assessed as remaining activity at 1 uM by Kinome scan method relative to control
[10] = biological target: Mitogen-activated protein kinase kinase kinase 4 (Homo sapiens) (UniProt Q9Y6R4); experiment: Inhibition of MAP3K4 (unknown origin) assessed as remaining activity at 1 uM by Kinome scan method relative to control
[11] = biological target: T2, Megakaryocyte-associated tyrosine-protein kinase (Homo sapiens) (UniProt P42679); experiment: Inhibition of CTK (unknown origin) assessed as remaining activity at 1 uM by Kinome scan method relative to control
T2 sequence (whole entry): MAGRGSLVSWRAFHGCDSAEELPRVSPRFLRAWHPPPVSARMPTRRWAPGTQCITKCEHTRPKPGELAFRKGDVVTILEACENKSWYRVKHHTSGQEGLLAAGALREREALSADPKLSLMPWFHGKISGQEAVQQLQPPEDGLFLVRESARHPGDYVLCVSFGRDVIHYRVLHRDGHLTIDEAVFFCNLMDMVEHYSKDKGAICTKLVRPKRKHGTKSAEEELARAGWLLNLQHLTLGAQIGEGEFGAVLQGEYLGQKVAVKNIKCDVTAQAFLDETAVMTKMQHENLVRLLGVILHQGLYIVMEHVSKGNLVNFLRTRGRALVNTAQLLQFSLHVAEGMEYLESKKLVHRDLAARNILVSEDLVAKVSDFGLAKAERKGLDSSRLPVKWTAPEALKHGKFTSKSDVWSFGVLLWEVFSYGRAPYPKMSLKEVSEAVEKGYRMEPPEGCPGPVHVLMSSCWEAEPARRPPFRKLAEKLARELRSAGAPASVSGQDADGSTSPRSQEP

[12] = biological target: T3, Serine/threonine-protein kinase Nek2 (Homo sapiens) (UniProt P51955); experiment: Inhibition of NEK2 (unknown origin) assessed as remaining activity at 1 uM by Kinome scan method relative to control
T3 sequence (whole entry): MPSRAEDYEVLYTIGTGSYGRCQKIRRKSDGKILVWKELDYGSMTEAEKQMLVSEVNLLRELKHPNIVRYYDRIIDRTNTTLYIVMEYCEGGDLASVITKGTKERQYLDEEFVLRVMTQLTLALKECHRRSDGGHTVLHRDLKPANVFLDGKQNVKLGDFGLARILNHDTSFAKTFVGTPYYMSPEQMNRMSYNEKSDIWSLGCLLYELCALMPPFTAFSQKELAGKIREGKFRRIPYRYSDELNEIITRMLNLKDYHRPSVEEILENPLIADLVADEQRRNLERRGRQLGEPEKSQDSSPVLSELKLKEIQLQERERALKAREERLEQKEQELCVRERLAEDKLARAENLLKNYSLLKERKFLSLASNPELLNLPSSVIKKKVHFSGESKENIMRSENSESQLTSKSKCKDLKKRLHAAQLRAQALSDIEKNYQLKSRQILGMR

[13] = biological target: T4, Mitogen-activated protein kinase 12 (Homo sapiens) (UniProt P53778); experiment: Inhibition of P38gamma (unknown origin) assessed as remaining activity at 1 uM by Kinome scan method relative to control
T4 sequence (whole entry): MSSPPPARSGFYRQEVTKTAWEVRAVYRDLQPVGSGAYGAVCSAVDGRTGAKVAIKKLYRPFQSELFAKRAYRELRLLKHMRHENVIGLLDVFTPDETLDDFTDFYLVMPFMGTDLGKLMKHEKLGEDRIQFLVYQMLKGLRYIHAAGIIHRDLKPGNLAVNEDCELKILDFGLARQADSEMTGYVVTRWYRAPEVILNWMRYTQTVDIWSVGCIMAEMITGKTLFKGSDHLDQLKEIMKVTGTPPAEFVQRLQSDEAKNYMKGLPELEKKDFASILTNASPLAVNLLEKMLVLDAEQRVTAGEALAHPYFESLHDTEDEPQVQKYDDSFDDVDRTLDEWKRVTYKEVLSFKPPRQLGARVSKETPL

[14] = biological target: Phosphatidylinositol 5-phosphate 4-kinase type-2 beta (Homo sapiens) (UniProt P78356); experiment: Inhibition of PIP5K2B (unknown origin) assessed as remaining activity at 1 uM by Kinome scan method relative to control
[15] = biological target: Dual specificity mitogen-activated protein kinase kinase 2 (Homo sapiens) (UniProt P36507); experiment: Inhibition of MEK2 (unknown origin) assessed as remaining activity at 1 uM by Kinome scan method relative to control
[16] = biological target: Tyrosine-protein kinase ABL1 (Homo sapiens) (UniProt P00519); experiment: Inhibition of ABL1 (unknown origin) assessed as remaining activity at 1 uM by Kinome scan method relative to control
Tyrosine-protein kinase ABL1 (Homo sapiens), sequence (P00519 whole entry): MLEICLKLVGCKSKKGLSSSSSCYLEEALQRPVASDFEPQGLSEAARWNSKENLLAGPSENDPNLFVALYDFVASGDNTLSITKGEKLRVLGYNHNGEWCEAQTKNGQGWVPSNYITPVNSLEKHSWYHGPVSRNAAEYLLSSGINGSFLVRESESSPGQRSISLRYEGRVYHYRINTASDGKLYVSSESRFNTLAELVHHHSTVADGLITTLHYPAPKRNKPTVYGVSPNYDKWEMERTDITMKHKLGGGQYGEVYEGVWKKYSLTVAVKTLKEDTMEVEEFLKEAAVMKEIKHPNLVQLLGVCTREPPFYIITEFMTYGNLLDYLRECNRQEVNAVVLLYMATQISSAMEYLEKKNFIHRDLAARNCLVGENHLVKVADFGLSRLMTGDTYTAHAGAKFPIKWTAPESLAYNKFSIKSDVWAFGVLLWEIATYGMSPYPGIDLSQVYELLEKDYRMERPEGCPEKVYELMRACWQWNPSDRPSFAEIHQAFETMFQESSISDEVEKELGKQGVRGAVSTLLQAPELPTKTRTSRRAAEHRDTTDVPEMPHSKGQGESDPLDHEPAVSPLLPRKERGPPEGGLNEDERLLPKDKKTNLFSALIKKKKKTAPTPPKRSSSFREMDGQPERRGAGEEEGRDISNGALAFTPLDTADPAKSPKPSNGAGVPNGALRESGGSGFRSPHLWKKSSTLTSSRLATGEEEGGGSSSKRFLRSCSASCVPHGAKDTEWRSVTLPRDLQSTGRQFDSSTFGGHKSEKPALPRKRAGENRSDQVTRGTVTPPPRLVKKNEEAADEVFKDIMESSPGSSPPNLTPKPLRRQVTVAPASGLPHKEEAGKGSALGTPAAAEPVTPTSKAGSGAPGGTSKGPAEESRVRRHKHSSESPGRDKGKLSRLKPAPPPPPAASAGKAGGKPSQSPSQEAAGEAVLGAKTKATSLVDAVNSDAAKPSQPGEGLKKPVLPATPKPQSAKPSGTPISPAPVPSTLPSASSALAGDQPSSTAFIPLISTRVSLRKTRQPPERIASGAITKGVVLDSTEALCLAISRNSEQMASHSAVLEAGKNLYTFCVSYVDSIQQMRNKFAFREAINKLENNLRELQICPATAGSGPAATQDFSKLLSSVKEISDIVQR

Casein kinase II subunit alpha (Homo sapiens), sequence (P68400 whole entry, looked up): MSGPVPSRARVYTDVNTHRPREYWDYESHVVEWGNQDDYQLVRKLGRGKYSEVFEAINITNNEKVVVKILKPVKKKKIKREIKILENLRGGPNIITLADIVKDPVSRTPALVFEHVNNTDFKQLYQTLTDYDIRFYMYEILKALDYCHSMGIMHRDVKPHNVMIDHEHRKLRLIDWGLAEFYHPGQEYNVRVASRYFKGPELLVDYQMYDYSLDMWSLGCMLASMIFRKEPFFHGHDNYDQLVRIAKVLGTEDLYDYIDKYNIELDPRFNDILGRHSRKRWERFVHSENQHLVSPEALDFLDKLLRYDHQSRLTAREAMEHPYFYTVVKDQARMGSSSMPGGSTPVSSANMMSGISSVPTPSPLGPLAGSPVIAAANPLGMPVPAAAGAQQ
Phosphatidylinositol 4,5-bisphosphate 3-kinase catalytic subunit alpha isoform (Homo sapiens), P42336 [M1043I], sequence (P42336 whole entry M1043I, canonical isoform): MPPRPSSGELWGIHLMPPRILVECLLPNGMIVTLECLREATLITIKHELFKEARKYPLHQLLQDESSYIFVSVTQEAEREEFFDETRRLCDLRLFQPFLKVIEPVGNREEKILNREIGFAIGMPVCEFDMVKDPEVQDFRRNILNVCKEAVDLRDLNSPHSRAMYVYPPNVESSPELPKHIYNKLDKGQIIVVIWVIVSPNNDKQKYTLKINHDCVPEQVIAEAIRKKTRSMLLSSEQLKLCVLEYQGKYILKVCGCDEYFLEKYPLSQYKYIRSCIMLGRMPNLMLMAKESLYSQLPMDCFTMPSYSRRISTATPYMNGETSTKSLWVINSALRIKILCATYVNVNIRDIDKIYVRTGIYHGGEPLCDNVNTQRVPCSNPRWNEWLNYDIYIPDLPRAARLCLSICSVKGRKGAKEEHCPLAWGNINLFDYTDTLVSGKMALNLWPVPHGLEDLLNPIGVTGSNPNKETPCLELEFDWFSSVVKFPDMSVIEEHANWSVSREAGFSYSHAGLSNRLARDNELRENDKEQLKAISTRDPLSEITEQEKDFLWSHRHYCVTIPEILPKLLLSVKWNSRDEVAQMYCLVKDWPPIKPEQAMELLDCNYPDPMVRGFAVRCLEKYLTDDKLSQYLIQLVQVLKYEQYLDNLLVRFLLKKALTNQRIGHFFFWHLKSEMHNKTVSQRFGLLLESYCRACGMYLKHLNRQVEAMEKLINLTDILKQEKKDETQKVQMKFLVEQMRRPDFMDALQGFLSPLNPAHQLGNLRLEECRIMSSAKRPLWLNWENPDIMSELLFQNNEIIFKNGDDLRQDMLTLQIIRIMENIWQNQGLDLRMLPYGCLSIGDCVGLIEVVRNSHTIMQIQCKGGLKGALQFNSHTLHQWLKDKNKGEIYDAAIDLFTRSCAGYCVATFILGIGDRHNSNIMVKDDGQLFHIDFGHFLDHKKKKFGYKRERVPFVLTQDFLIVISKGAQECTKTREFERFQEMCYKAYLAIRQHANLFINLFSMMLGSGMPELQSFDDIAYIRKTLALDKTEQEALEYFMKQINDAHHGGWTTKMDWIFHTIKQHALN
Phosphorylase b kinase gamma catalytic chain, skeletal muscle/heart isoform (Homo sapiens), sequence (Q16816 whole entry, looked up, canonical isoform): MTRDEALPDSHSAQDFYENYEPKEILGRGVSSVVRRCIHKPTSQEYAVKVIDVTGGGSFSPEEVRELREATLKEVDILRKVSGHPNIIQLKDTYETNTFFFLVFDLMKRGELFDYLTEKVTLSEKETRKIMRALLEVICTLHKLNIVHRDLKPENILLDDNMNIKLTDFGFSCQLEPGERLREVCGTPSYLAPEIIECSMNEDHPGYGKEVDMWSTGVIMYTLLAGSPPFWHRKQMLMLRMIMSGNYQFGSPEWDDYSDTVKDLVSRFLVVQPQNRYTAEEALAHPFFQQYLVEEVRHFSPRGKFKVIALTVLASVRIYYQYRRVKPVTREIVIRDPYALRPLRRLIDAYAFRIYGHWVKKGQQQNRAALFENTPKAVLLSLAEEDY
Serine/threonine-protein kinase MRCK gamma (Homo sapiens), sequence (Q6DT37 whole entry, canonical isoform): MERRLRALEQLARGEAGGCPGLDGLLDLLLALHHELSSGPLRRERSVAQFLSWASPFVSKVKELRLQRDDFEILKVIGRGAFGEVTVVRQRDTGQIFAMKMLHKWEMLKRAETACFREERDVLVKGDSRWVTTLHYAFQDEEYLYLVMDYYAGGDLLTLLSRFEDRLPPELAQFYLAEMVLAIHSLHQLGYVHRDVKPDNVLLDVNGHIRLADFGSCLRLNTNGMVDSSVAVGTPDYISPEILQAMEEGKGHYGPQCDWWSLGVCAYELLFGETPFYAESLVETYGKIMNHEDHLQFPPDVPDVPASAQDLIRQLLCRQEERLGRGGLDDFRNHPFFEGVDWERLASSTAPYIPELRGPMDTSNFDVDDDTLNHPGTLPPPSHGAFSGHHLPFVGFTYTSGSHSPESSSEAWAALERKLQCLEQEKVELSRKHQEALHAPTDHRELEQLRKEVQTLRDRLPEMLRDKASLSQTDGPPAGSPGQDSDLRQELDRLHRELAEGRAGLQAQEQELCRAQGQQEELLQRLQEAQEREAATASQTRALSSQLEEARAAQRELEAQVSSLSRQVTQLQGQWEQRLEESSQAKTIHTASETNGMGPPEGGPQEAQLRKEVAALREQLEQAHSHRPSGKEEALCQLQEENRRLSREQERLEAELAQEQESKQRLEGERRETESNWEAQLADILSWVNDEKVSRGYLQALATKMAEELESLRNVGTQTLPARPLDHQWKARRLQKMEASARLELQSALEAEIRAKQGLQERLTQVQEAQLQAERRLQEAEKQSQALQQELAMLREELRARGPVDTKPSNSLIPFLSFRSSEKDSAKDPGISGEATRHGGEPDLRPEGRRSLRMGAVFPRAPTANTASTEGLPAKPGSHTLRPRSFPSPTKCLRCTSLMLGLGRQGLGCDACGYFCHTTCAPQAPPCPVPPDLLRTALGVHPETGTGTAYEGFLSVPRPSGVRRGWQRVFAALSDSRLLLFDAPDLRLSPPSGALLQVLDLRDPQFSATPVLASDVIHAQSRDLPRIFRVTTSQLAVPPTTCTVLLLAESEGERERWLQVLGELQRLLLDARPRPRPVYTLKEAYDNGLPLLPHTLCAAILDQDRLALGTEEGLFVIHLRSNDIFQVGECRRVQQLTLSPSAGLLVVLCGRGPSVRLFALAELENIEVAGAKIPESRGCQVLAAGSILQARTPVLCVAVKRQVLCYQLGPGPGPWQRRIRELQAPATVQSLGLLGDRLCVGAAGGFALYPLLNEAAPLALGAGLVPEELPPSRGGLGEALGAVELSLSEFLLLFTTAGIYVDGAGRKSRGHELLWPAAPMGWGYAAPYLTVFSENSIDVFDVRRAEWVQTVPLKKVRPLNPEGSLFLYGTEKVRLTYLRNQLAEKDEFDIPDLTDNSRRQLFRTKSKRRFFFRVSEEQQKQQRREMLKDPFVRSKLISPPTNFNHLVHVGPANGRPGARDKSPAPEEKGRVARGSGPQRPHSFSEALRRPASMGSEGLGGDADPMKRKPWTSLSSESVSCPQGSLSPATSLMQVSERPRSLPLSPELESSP
Phosphatidylinositol 5-phosphate 4-kinase type-2 beta (Homo sapiens), sequence (P78356 whole entry): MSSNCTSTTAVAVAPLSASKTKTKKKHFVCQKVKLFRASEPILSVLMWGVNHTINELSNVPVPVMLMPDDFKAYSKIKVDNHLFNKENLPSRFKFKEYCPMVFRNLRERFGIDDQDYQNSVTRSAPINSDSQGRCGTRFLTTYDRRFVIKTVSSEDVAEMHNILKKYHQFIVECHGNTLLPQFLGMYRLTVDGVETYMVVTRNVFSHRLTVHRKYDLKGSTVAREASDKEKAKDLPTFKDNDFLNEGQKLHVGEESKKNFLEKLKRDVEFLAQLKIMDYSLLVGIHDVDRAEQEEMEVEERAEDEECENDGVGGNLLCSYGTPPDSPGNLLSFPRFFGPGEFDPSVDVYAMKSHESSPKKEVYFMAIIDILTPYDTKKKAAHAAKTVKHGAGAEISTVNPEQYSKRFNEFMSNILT

Compound	Activity [1]	Activity [2]	Activity [3]	Activity [4]	Activity [5]	Activity [6]	Activity [7]	Activity [8]	Activity [9]	Activity [10]	Activity [11]	Activity [12]	Activity [13]	Activity [14]	Activity [15]	Activity [16]
Nc1ccccc1Nc1ccc2c(c1)CCc1ccccc1C2=O	91%	97%	84%	95%	96%	92%	92%	86%	99%	82%	71%	90%	98%	86%	88%	84%
O=C1c2ccc(Nc3ccc(F)cc3F)cc2CCc2ccc(OC[C@H](O)CO)cc21 [Skepinone-L]	86%	93%	90%	84%	86%	100%	97%	96%	93%	85%	80%	94%	88%	100%	90%	94%
